Source: PubChem BioAssay AID1963422 (Molecular Pharmacology Branch, DTP, NCI, 2024)
Each block holds one compound with its values, some of them ahead of it.

Tested on: 463943-066-T-J2-PDC complex spheroid growth
Assay: Anticancer human tumor 463943-066-T-J2-PDC patient-derived colon adenocarcinoma cell line growth inhibition [Asc]
Details: for IC50: curve of first compound; for viability, T/C: stronger effect = lower value
Method: Multicellular complex tumor spheroid response to apoptosis pathway targeting inhibitors Alrizomadlin, Pelcitoclax, and Dasminapant in combination with a variety of drugs and investigational agents in selected tumor cell lines
The MDM2 inhibitor alrizomadlin, the Bcl-2/Bcl-xL inhibitor pelcitoclax, and the IAPs inhibitor dasminapant were evaluated both individually and in combination with standard of care and investigational anticancer small molecules within a complex spheroid model of solid tumors. . Complex spheroids include a stromal component modeled by human endothelial cells (HUVEC) and fibroblasts modeled by human mesenchymal stem cells (MSCs). The concentration ranges selected for each drug and investigational agent were based upon clinically achievable concentrations if the clinical Cmax of the agent was known.
Compounds. The drugs and investigational agents: alrizomadlin (APG-115; NSC831270), pelcitoclax (APG-1252; NSC835773), dasminapant (APG-1387;NSC834197), TAK-243 (NSC785004), copanlisib (NSC809693), olaparib (NSC753686), talazoparib (NSC767125), cobimetinib (NSC 768068), eltanexor (KPT-8602, NSC 794443), abemaciclib (NSC 768073), sotorasib (NSC818433), adagrasib (NSC 831453), MRTX-1133 (NSC 836407), Iadademestat (ORY1001, NSC 806812), and RMC-4630 (NSC839698), were obtained from the NCI Developmental Therapeutics Program Chemical Repository. The FDA-approved anticancer drug set is available from the Developmental Therapeutics Program at https://dtp.cancer.gov/organization/dscb/obtaining/available plates.htm. […] The stock solutions were prepared in dimethyl sulfoxide (DMSO, Sigma-Aldrich, St. Louis, MO, cat. D2650) at 800-fold the tested concentration and stored at -70 degrees C prior to their use. All drugs and investigational agents were tested over a range starting from a high concentration at or near the clinical Cmax and decreasing in half-log increments. If the clinical Cmax for an agent had not been determined, the highest concentration tested was 10 microM.
The patient-derived cancer (PDC) cell lines include five colon adenocarcinomas: 186277-243-T-J2-PDC, 616215-338-R-J1-PDC, 439559-082-T-J2-PDC, 463943-066-T-J2-PDC, and 519858-162-T-J1-PDC; three pancreatic carcinomas: 323965-272-R-J2-PDC, 521955-158-R6-J3-PDC, and 521955-158-R2-J5-PDC; two uterine sarcomas: 327498-152-R-J2-PDC and 993429-296-R-J1-PDC; two rhabdomyosarcomas: 755483-174-R-J1-PDC and 772245-204-R-J1-PDC; two soft tissue sarcomas: 126254-015-R-J1-PDC and 494315-158-R-J1-PDC; two malignant fibrous histiocytomas: 317291-083-R-J1-PDC and 596521-263-R-J1-PDC; two breast carcinomas: 171881-019-R-J1-PDC and 885512-296-R-J2-PDC; and one ovarian carcinoma: 6556581-035-R-J-PDC were obtained from the NCI PDMR, (https://pdmr.cancer.gov). The established cell lines HSSY-2 synovial sarcoma (RRID:CVCL 8719), SYO-1 synovial sarcoma (RRID:CVCL_7146), MPNST malignant peripheral neural sheath tumor were obtained from the Sloan Kettering Institute. The following established cell lines were purchased from the American Type Culture Collection (ATCC, Manassas, VA), Sor the received from the NCI repository:, PANC-1 pancreatic carcinoma (CRL-1469, RRID:CVCL_0480), OVCAR-5 ovarian carcinoma (RRID:CVCL_1628), OVCAR-8 ovarian carcinoma (RRID:CVCL_1629), , MCF-7 breast carcinoma (CRL-12584, RRID:CVCL_0031), MDA-MB-231 breast carcinoma (CRL-12532, RRID:CVCL_0062), NCI-H1876 small cell lung carcinoma (CRL-5902, RRID:CVCL_1503), NCI-H510A small cell lung carcinoma (HTB-184, RRID:CVCL_1565), NCI-H1417 (CRL-5869, RRID:CVCL_1469), and NCI-H196 small cell lung carcinoma (CRL-5823, RRID:CVCL_1509). Dr. Peter Houghton (Greehey Children's Cancer Research Institute, University of Texas Health Science Center, San Antonio, TX) provided Rh-18 rhabdomyosarcoma (RRID:CVCL_1659). Pooled donor human umbilical vein endothelial cells (HUVEC, Lonza, cat. CC-2519) and human mesenchymal stem cells (hMSC, Lonza, cat. PT-2501) were purchased from Lonza (Walkersville, MD).
Cell Culture. […]
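Further: compound exposure lasted 7 days.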
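Wherever viability, T/C is given: 100% = DMSO vehicle control wells.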

- IC50 (second compound 0.00316 µM): > 1000 nM
- IC50 (second compound 0.01 µM): > 1000 nM
- IC50 (second compound 0.0316 µM): > 1000 nM
- IC50 (second compound 0.1 µM): > 1000 nM
- IC50 (second compound 0.316 µM): > 1000 nM
- IC50 (second compound 1 µM): > 1000 nM
SMILES: CCN1CCN(Cc2ccc(Nc3ncc(F)c(-c4cc(F)c5nc(C)n(C(C)C)c5c4)n3)nc2)CC1 + CNC(C)C(=O)NC1CN(S(=O)(=O)c2cccc(S(=O)(=O)N3CCC4CCC(C(=O)NC(c5ccccc5)c5ccccc5)N4C(=O)C(NC(=O)C(C)NC)C3)c2)CCC2CCC(C(=O)NC(c3ccccc3)c3ccccc3)N2C1=O
- viability, T/C (second compound 0.00316 µM, first compound 0.00316 µM): 87.7%
- viability, T/C (second compound 0.00316 µM, first compound 0.01 µM): 92.7%
- viability, T/C (second compound 0.00316 µM, first compound 0.0316 µM): 88%
- viability, T/C (second compound 0.00316 µM, first compound 0.1 µM): 93.6%
- viability, T/C (second compound 0.00316 µM, first compound 0.316 µM): 109%
- viability, T/C (second compound 0.00316 µM, first compound 1 µM): 120%
- viability, T/C (second compound 0.01 µM, first compound 0.00316 µM): 99.2%
- viability, T/C (second compound 0.01 µM, first compound 0.01 µM): 102%
- viability, T/C (second compound 0.01 µM, first compound 0.0316 µM): 99.8%
- viability, T/C (second compound 0.01 µM, first compound 0.1 µM): 92.2%
- viability, T/C (second compound 0.01 µM, first compound 0.316 µM): 123%
- viability, T/C (second compound 0.01 µM, first compound 1 µM): 121%
- viability, T/C (second compound 0.0316 µM, first compound 0.00316 µM): 103%
- viability, T/C (second compound 0.0316 µM, first compound 0.01 µM): 108%
- viability, T/C (second compound 0.0316 µM, first compound 0.0316 µM): 94.9%
- viability, T/C (second compound 0.0316 µM, first compound 0.1 µM): 101%
- viability, T/C (second compound 0.0316 µM, first compound 0.316 µM): 116%
- viability, T/C (second compound 0.0316 µM, first compound 1 µM): 128%
- viability, T/C (second compound 0.1 µM, first compound 0.00316 µM): 89%
- viability, T/C (second compound 0.1 µM, first compound 0.01 µM): 92.3%
- viability, T/C (second compound 0.1 µM, first compound 0.0316 µM): 89.6%
- viability, T/C (second compound 0.1 µM, first compound 0.1 µM): 95.5%
- viability, T/C (second compound 0.1 µM, first compound 0.316 µM): 113%
- viability, T/C (second compound 0.1 µM, first compound 1 µM): 110%
- viability, T/C (second compound 0.316 µM, first compound 0.00316 µM): 92.3%
- viability, T/C (second compound 0.316 µM, first compound 0.01 µM): 103%
- viability, T/C (second compound 0.316 µM, first compound 0.0316 µM): 99.7%
- viability, T/C (second compound 0.316 µM, first compound 0.1 µM): 89.6%
- viability, T/C (second compound 0.316 µM, first compound 0.316 µM): 109%
- viability, T/C (second compound 0.316 µM, first compound 1 µM): 118%
- viability, T/C (second compound 1 µM, first compound 0.00316 µM): 88.8%
- viability, T/C (second compound 1 µM, first compound 0.01 µM): 92.5%
- viability, T/C (second compound 1 µM, first compound 0.0316 µM): 84%
- viability, T/C (second compound 1 µM, first compound 0.1 µM): 94%
- viability, T/C (second compound 1 µM, first compound 0.316 µM): 120%
- viability, T/C (second compound 1 µM, first compound 1 µM): 117%

- IC50 (second compound 0.00949 µM): 188 nM
- IC50 (second compound 0.03 µM): 133 nM
- IC50 (second compound 0.0949 µM): 117 nM
- IC50 (second compound 0.3 µM): 70.6 nM
- IC50 (second compound 0.949 µM): 34.9 nM
- IC50 (second compound 3 µM): 17.7 nM
SMILES: O=C(c1ccc(F)c(F)c1Nc1ccc(I)cc1F)N1CC(O)([C@@H]2CCCCN2)C1 + CCN1C(C(=O)NC23CCC(C(=O)O)(CC2)CC3)C(c2cccc(Cl)c2F)C2(C(=O)Nc3cc(Cl)ccc32)C12CCCCC2
- viability, T/C (second compound 0.00949 µM, first compound 0.00316 µM): 86.3%
- viability, T/C (second compound 0.00949 µM, first compound 0.01 µM): 78.7%
- viability, T/C (second compound 0.00949 µM, first compound 0.0316 µM): 74.2%
- viability, T/C (second compound 0.00949 µM, first compound 0.1 µM): 63.5%
- viability, T/C (second compound 0.00949 µM, first compound 0.316 µM): 39.1%
- viability, T/C (second compound 0.00949 µM, first compound 1 µM): 27.9%
- viability, T/C (second compound 0.03 µM, first compound 0.00316 µM): 93.5%
- viability, T/C (second compound 0.03 µM, first compound 0.01 µM): 77.5%
- viability, T/C (second compound 0.03 µM, first compound 0.0316 µM): 63.7%
- viability, T/C (second compound 0.03 µM, first compound 0.1 µM): 56.2%
- viability, T/C (second compound 0.03 µM, first compound 0.316 µM): 40%
- viability, T/C (second compound 0.03 µM, first compound 1 µM): 29%
- viability, T/C (second compound 0.0949 µM, first compound 0.00316 µM): 84.5%
- viability, T/C (second compound 0.0949 µM, first compound 0.01 µM): 74.7%
- viability, T/C (second compound 0.0949 µM, first compound 0.0316 µM): 65.7%
- viability, T/C (second compound 0.0949 µM, first compound 0.1 µM): 50.8%
- viability, T/C (second compound 0.0949 µM, first compound 0.316 µM): 39.4%
- viability, T/C (second compound 0.0949 µM, first compound 1 µM): 28.2%
- viability, T/C (second compound 0.3 µM, first compound 0.00316 µM): 79.5%
- viability, T/C (second compound 0.3 µM, first compound 0.01 µM): 65.2%
- viability, T/C (second compound 0.3 µM, first compound 0.0316 µM): 54.9%
- viability, T/C (second compound 0.3 µM, first compound 0.1 µM): 50.5%
- viability, T/C (second compound 0.3 µM, first compound 0.316 µM): 37.8%
- viability, T/C (second compound 0.3 µM, first compound 1 µM): 29.6%
- viability, T/C (second compound 0.949 µM, first compound 0.00316 µM): 67.8%
- viability, T/C (second compound 0.949 µM, first compound 0.01 µM): 60%
- viability, T/C (second compound 0.949 µM, first compound 0.0316 µM): 48.3%
- viability, T/C (second compound 0.949 µM, first compound 0.1 µM): 44.1%
- viability, T/C (second compound 0.949 µM, first compound 0.316 µM): 39.5%
- viability, T/C (second compound 0.949 µM, first compound 1 µM): 32.4%
- viability, T/C (second compound 3 µM, first compound 0.00316 µM): 65%
- viability, T/C (second compound 3 µM, first compound 0.01 µM): 55.7%
- viability, T/C (second compound 3 µM, first compound 0.0316 µM): 44.2%
- viability, T/C (second compound 3 µM, first compound 0.1 µM): 40.4%
- viability, T/C (second compound 3 µM, first compound 0.316 µM): 36.6%
- viability, T/C (second compound 3 µM, first compound 1 µM): 33.8%
